Measurements as given in ChEMBL document CHEMBL4425086 (J Nat Prod, 2016).
pEC50: −log10 of the molar value. Calls of active or inactive are those of the source. The rule behind the calls is not given here.

Tests used:
DRG neuron = experiment: Increase in calcium level in DRG neurons isolated from TRPA1 deficient mouse at 10 uM by fura2/AM dye based plate reader analysis; format: functional, cell-based
[1] = target: T1, Transient receptor potential cation channel subfamily A member 1 (Homo sapiens, UniProt O75762); experiment: Activation of human TRPA1 expressed in HEK293 cells assessed as increase in calcium level at 20 uM by fura2/AM dye based single cell based plate reader analysis
[2] = target: T1, Transient receptor potential cation channel subfamily A member 1; experiment: Activation of human TRPA1 expressed in HEK293 cells assessed as induction of inward current at 10 uM at -70 to +70 mV by whole cell patch clamp assay; format: cell-based
[3] = target: T1, Transient receptor potential cation channel subfamily A member 1; experiment: Activation of human TRPA1 expressed in HEK293 cells assessed as induction of outward current at 10 uM at -70 to +70 mV by whole cell patch clamp assay; format: cell-based
[4] = target: Transient receptor potential cation channel subfamily A member 1 (Mus musculus) (UniProt Q8BLA8); experiment: Activation of TRPA1 in wild type mouse DRG neurons assessed as increase in calcium level at 10 uM treated after 10 uM Plumbagin pre-treatment by fura2/AM dye based plate reader analysis relative to control
[5] = target: T1, Transient receptor potential cation channel subfamily A member 1; experiment: Activation of human TRPA1 expressed in HEK293 cells assessed as increase in calcium level at 20 uM in presence of TRPA1 channel blocker A-967079 by fura2/AM dye based single cell based plate reader analysis
HEK293 [6] = experiment: Increase in calcium level in HEK293 cells at 20 uM by fura2/AM dye based single cell based plate reader analysis; format: functional; conditions: Homo sapiens
[7] = target: T1, Transient receptor potential cation channel subfamily A member 1; experiment: Activation of human TRPA1 expressed in HEK293 cells assessed as increase in calcium level by fluo-4 dye based plate reader analysis; format: cell-based
[8] = target: T1, Transient receptor potential cation channel subfamily A member 1; experiment: Activation of human TRPA1 expressed in HEK293 cells assessed as induction of current at 10 uM at -70 to +70 mV by whole cell patch clamp assay; format: cell-based
[9] = target: Transient receptor potential cation channel subfamily A member 1 (Mus musculus) (UniProt Q8BLA8); experiment: Activation of TRPA1 in wild type mouse DRG neurons assessed as increase in calcium level at 10 uM by fura2/AM dye based plate reader analysis relative to control
HEK293 [10] = experiment: Increase in calcium level in HEK293 cells at 0.1 to 100 uM by fluo-4 dye based plate reader analysis; format: functional, cell-based; conditions: Homo sapiens
[11] = target: T1, Transient receptor potential cation channel subfamily A member 1; experiment: Activation of human TRPA1 expressed in HEK293 cells assessed as induction of inward current at 10 uM at -70 to +70 mV in presence of TRPA1 channel blocker A-967079 by whole cell patch clamp assay; format: cell-based
[12] = target: T1, Transient receptor potential cation channel subfamily A member 1; experiment: Activation of human TRPA1 expressed in HEK293 cells assessed as induction of outward current at 10 uM at -70 to +70 mV in presence of TRPA1 channel blocker A-967079 by whole cell patch clamp assay; format: cell-based
[13] = target: T1, Transient receptor potential cation channel subfamily A member 1; experiment: Activation of human TRPA1 expressed in HEK293 cells assessed as induction of current at 1 uM at -70 to +70 mV by whole cell patch clamp assay; format: cell-based
[14] = target: T1, Transient receptor potential cation channel subfamily A member 1; experiment: Decrease in TRPA1 current amplitude in human TRPA1 expressed HEK293 cells at 10 uM at high voltage by whole cell patch clamp assay; format: cell-based
[15] = target: T1, Transient receptor potential cation channel subfamily A member 1; experiment: Activation of human TRPA1 expressed in HEK293 cells assessed as induction of current at 1 to 10 uM at +70 mV in presence of extracellular catalase by whole cell patch clamp assay; format: cell-based
[16] = target: T1, Transient receptor potential cation channel subfamily A member 1; experiment: Activation of human TRPA1 expressed in HEK293 cells assessed as induction of current at 1 to 10 uM at +70 mV in presence of intracellular catalase by whole cell patch clamp assay; format: cell-based
[17] = Lipophilicity, logP of compound; conditions: octanol/water

Transient receptor potential cation channel subfamily A member 1 (Mus musculus), sequence (Q8BLA8 whole entry): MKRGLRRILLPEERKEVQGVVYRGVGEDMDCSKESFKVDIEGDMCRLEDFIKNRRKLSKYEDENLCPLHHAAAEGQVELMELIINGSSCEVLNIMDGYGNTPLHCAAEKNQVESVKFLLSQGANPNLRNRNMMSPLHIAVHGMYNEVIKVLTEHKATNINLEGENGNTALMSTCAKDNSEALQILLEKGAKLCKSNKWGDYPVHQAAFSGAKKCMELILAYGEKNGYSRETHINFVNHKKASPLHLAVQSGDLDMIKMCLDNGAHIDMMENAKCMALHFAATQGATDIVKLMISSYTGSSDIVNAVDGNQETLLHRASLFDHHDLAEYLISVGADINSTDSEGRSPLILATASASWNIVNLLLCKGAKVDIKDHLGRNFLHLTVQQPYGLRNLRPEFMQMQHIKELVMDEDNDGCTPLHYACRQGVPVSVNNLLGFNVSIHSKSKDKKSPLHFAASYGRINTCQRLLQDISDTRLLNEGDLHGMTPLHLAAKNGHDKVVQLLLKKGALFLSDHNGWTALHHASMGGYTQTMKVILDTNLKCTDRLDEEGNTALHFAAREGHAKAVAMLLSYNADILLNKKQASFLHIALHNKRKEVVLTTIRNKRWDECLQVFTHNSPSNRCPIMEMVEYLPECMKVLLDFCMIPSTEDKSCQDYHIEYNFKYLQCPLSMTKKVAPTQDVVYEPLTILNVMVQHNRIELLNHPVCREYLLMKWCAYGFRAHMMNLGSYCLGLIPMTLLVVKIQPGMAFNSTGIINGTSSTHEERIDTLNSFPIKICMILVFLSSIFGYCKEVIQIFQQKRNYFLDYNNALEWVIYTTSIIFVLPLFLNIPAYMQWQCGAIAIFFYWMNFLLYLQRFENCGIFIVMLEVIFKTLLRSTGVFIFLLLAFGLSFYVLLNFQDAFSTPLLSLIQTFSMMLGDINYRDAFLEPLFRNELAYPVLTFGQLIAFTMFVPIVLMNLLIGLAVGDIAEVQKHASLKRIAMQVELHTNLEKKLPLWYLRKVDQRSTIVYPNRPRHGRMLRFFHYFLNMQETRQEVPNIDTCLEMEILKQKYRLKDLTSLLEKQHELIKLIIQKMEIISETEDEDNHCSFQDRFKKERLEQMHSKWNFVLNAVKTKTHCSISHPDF
T1 sequence (O75762 whole entry): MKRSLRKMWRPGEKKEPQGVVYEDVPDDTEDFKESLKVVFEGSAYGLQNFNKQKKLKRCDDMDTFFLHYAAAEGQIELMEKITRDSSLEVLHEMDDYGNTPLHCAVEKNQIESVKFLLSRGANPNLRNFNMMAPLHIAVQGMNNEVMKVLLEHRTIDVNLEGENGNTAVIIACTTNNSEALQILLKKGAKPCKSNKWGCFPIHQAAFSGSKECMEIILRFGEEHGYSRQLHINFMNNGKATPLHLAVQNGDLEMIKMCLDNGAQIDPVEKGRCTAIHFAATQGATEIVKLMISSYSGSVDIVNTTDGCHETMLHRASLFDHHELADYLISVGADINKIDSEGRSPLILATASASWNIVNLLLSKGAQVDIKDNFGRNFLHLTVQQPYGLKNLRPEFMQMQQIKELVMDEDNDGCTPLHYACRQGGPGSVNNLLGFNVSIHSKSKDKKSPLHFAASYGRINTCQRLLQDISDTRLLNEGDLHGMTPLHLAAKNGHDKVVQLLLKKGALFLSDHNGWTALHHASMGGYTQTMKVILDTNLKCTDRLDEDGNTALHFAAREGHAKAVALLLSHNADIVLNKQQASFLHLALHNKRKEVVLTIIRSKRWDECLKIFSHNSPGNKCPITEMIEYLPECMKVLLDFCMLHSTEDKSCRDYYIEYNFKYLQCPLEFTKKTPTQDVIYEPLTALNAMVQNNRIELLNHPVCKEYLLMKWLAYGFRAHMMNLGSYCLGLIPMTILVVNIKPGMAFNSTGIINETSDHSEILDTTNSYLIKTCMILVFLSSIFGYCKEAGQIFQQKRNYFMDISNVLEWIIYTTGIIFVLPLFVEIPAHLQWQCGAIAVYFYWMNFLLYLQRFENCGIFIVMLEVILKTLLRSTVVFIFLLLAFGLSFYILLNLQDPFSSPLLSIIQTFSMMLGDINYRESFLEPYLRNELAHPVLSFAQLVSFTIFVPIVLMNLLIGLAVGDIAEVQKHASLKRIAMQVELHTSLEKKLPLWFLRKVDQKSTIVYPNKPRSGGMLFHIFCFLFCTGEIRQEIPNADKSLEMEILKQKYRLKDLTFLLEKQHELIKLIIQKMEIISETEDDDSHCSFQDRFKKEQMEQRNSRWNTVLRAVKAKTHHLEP

For `C=CCN=C=S`, the Activity (DRG neuron) was “inactive”, the Activity [1] was “Active” and the Activity [2] was “Active”. For the same compound, the Activity [3] was “Active” and the Activity [4] was “inactive”.

With `CC(C)=CCC/C(C)=C/COc1ccc2ccc(=O)oc2c1` the Activity [1] was “Active”.

With `COc1cc(/C=C/C(=O)O)ccc1OC/C=C(\C)CCC=C(C)C` the Activity [1] was “Active”.

For `COc1cc(/C=C/C=O)ccc1OC/C=C(\C)CCC=C(C)C`, the Activity [5] was “inactive”, the Activity (HEK293 [6]) was “inactive” and the Activity [1] was “Active”.

In the case of `O=C1C=C(O)C(=O)c2ccccc21`, the Activity [1] was “Active”.

With `COc1cc(/C=C/C=O)ccc1OCC=C(C)C` [BOROPINAL] the Activity [5] was “inactive”, the Activity (HEK293 [6]) was “inactive” and the pEC50 [7] was 5.01. For the same compound, the Activity [1] was “Active”, the Activity [8] was “inactive” and the Activity [9] was “inactive”.

For `O=C1C=CC(=O)c2c(O)cccc21` [JUGLONE], the Activity [5] was “inactive”, the Activity (HEK293 [6]) was “inactive” and the pEC50 [7] was 5.77. For the same compound, the Activity (HEK293 [10]) was “inactive”, the Activity [1] was “Active” and the Activity [2] was “Active”. For the same compound, the Activity [3] was “Active”, the Activity [11] was “inactive” and the Activity [12] was “inactive”.

With `CC1=CC(=O)c2c(O)cccc2C1=O` [PLUMBAGIN] the Activity (DRG neuron) was “inactive”, the Activity [5] was “inactive” and the Activity (HEK293 [6]) was “inactive”. The pEC50 [7] was 6.34, the Activity [1] was “Active” and the Activity [13] was “inactive”. For the same compound, the Activity [14] was “Active”, the Activity [15] was 65 pA/pF and the Activity [16] was 93.5 pA/pF. The Activity [9] was 50% and the logP [17] was 3.69.
